These results are taken from patent US20130072470A1 (ABBVIE INC., priority 2011, published 2013).

The first assay deals with T1, Jak3 enzyme (aa 811-1103) (Homo sapiens, UniProt P52333).
T1 construct: Jak3 enzyme (aa 811-1103); expressed in SF9 cells as a GST fusion; GST; made in house; host or cells: SF9 insect cells
T1 sequence (P52333 811-1103): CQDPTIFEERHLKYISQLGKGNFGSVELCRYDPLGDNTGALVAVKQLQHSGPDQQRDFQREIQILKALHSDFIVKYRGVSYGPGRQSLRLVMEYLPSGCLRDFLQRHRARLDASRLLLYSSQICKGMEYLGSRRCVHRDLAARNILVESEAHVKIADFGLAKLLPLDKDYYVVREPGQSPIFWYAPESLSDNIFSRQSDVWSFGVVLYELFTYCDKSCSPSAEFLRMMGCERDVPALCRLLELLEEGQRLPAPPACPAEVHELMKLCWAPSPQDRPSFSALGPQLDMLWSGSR
The assay can be described thus: In vitro Jak3 kinase activity measured by time-resolved fluorescence resonance energy transfer (trFRET). The class given is biochemical. The conditions noted are these: ATP 0.001 mM. The protocol:
In Vitro Jak3 Kinase Activity Measured by Time-Resolved Fluorescence Resonance Energy Transfer (trFRET)
Varying concentrations of inhibitor were added to an assay well containing: Jak3 enzyme (aa 811-1103; expressed in SF9 cells as a GST fusion and purified by glutathione affinity chromatography; 3 nM), peptide substrate (biotin-TYR2, Sequence: Biotin-(Ahx)-AEEEYFFLFA-amide; 2 μM), MOPSO pH 6.5 (50 mM), MgCl2 (10 mM), MnCl2 (2 mM), DTT (2.5 mM), BSA (0.01% w/v), Na3VO4 (0.1 mM) and ATP (0.001 mM). After about 60 min incubation at rt, the reaction was quenched by addition of EDTA (final concentration: 100 mM) and developed by addition of revelation reagents (final approximate concentrations: 30 mM HEPES pH 7.0, 0.06% BSA, 0.006% Tween-20, 0.24 M KF, 80 ng/mL PT66K (europium labeled anti-phosphotyrosine antibody cat #61T66KLB Cisbio, Bedford, Mass.) and 0.8 μg/mL SAXL (Phycolink streptavidin-allophycocyanin acceptor, cat #PJ52S, Prozyme, San Leandro, Calif.). The developed reaction was incubated in the dark either at about 4° C., for about 14 h or for about 60 min at rt, then read via a time-resolved fluorescence detector (Rubystar, BMG) using a 337 nm laser for excitation and emission wavelength of 665 nm. Within the linear range of the assay, the observed signal at 665 nm is directly related to phosphorylated product and used to calculate the IC50 values.
One may read the IC50 as the midpoint of a concentration-inhibition curve. The low end stands for inhibition by little substance, the high end for a need for much substance. Compound `CC[C@@H]1CN(C(=O)CCC(F)(F)F)C[C@@H]1c1cnc2cnc3[nH]ccc3n12` [Example #15, 1-((3S,4R)-3-ethyl-4-(3H-imidazo[1,2-a]pyrrolo[2,3-e]pyrazin-8-yl)pyrrolidin-1-yl)-4,4,4-trifluorobutan-1-one] registered an IC50 of 1 to 10 µM.

As to `CC[C@@H]1C[C@H](CCC#N)C[C@@H]1c1nnc2cnc3[nH]ccc3n12` [Example #22, 3-((1S,3R,4S)-3-ethyl-4-(6H-pyrrolo[2,3-e][1,2,4]triazolo[4,3-a]pyrazin-1-yl)cyclopentyl)propanenitrile], the IC50 was in the range of 1 to 10 µM.

For `CC[C@@H]1CN(C(=O)NCC(F)F)C[C@@H]1c1cnc2cnc3[nH]ccc3n12` [Example #14, (3S,4R)—N-(2,2-difluoroethyl)-3-ethyl-4-(3H-imidazo[1,2-a]pyrrolo[2,3-e]pyrazin-8-yl)pyrrolidine-1-carboxamide], the IC50 lay within 1 to 10 µM.

`C[C@@H]1CN(C(=O)NCC(F)F)C[C@@H]1c1cnc2cnc3[nH]ccc3n12` [Example 09, (3R,4S)—N-(2,2-difluoroethyl)-3-(3H-imidazo[1,2-a]pyrrolo[2,3-e]pyrazin-8-yl)-4-methylpyrrolidine-1-carboxamide] came in with an IC50 of 1 to 10 µM.

Turning to `C[C@@H]1CN(C(=O)NCC(F)(F)F)C[C@@H]1c1cnc2cnc3[nH]ccc3n12` [Example #18, (3S,4R)-3-methyl-4-(3H-imidazo[1,2-a]pyrrolo[2,3-e]pyrazin-8-yl)-N-(2,2,2-trifluoroethyl)pyrrolidine-1-carboxamide], the IC50 is above 10 µM.

Compound `C[C@@H]1C[C@H](NCc2cnc(C(F)(F)F)nc2)C[C@@H]1c1cnc2cnc3[nH]ccc3n12` [Example #4, (1S,3S,4R)-3-(3H-imidazo[1,2-a]pyrrolo[2,3-e]pyrazin-8-yl)-4-methyl-N-((2-(trifluoromethyl)pyrimidin-5-yl)methyl)cyclopentylamine] came in with an IC50 above 10 µM.

The compound `CC[C@@H]1C[C@@H](C(=O)NCC(F)(F)F)C[C@@H]1c1nnc2cnc3[nH]ccc3n12` [Example #6, (1R,3R,4S)-3-ethyl-4-(6H-pyrrolo[2,3-e][1,2,4]triazolo[4,3-a]pyrazin-1-yl)-N-(2,2,2-trifluoroethyl)cyclopentanecarboxamide] displayed an IC50 above 10 µM.

The assay is the same for the next values; noted with them: ATP 0.001 mM, Table B.
Take `CC[C@@H]1C[C@H](NC(=O)c2ocnc2C)C[C@@H]1c1nnc2cnc3[nH]ccc3n12` [compound 51, N-((1S,3R,4S)-3-ethyl-4-(6H-pyrrolo[2,3-e][1,2,4]triazolo[4,3-a]pyrazin-1-yl)cyclopentyl)-4-methyloxazole-5-carboxamide]: the IC50 fell in the range of 1 to 10 µM.

Take `CC[C@@H]1C[C@H](NC(=O)COc2cc(C)on2)C[C@@H]1c1nnc2cnc3[nH]ccc3n12` [compound 26, N-((1S,3R,4S)-3-ethyl-4-(6H-pyrrolo[2,3-e][1,2,4]triazolo[4,3-a]pyrazin-1-yl)cyclopentyl)-2-(5-methylisoxazol-3-yloxy)acetamide]: the IC50 is above 10 µM.

`CC[C@@H]1C[C@H](NC(=O)c2cnoc2C2CC2)C[C@@H]1c1nnc2cnc3[nH]ccc3n12` [compound 66, 5-cyclopropyl-N-((1S,3R,4S)-3-ethyl-4-(6H-pyrrolo[2,3-e][1,2,4]triazolo[4,3-a]pyrazin-1-yl)cyclopentyl)isoxazole-4-carboxamide] displayed an IC50 of 1 to 10 µM.

As for `CC[C@@H]1C[C@H](NC(=O)CCc2ccc(C)o2)C[C@@H]1c1nnc2cnc3[nH]ccc3n12` [compound 69, N-((1S,3R,4S)-3-ethyl-4-(6H-pyrrolo[2,3-e][1,2,4]triazolo[4,3-a]pyrazin-1-yl)cyclopentyl)-3-(5-methylfuran-2-yl)propanamide], the IC50 was in the range of 1 to 10 µM.

With `CC[C@@H]1C[C@H](NC(=O)CCC2CC2)C[C@@H]1c1nnc2cnc3[nH]ccc3n12` [compound 45, 3-cyclopropyl-N-((1S,3R,4S)-3-ethyl-4-(6H-pyrrolo[2,3-e][1,2,4]triazolo[4,3-a]pyrazin-1-yl)cyclopentyl)propanamide], the IC50 was 1 to 10 µM.

On to `CC[C@@H]1C[C@H](NC(=O)Cc2cc(C)no2)C[C@@H]1c1nnc2cnc3[nH]ccc3n12` [compound 55, N-((1S,3R,4S)-3-ethyl-4-(6H-pyrrolo[2,3-e][1,2,4]triazolo[4,3-a]pyrazin-1-yl)cyclopentyl)-2-(3-methylisoxazol-5-yl)acetamide], for which the IC50 was 1 to 10 µM.

In the case of `CC[C@@H]1C[C@H](NC(=O)c2ccc(CSC)o2)C[C@@H]1c1nnc2cnc3[nH]ccc3n12` [compound 64, N-((1S,3R,4S)-3-ethyl-4-(6H-pyrrolo[2,3-e][1,2,4]triazolo[4,3-a]pyrazin-1-yl)cyclopentyl)-5-(methylthiomethyl)furan-2-carboxamide], the IC50 was in the range of 1 to 10 µM.

In turn, `CC[C@@H]1C[C@H](NC(=O)CCc2nc(C)no2)C[C@@H]1c1nnc2cnc3[nH]ccc3n12` [compound 37, N-((1S,3R,4S)-3-ethyl-4-(6H-pyrrolo[2,3-e][1,2,4]triazolo[4,3-a]pyrazin-1-yl)cyclopentyl)-3-(3-methyl-1,2,4-oxadiazol-5-yl)propanamide] gave an IC50 of 1 to 10 µM.

Compound `CC[C@@H]1C[C@H](NC(=O)c2cc(C)on2)C[C@@H]1c1nnc2cnc3[nH]ccc3n12` [compound 49, N-((1S,3R,4S)-3-ethyl-4-(6H-pyrrolo[2,3-e][1,2,4]triazolo[4,3-a]pyrazin-1-yl)cyclopentyl)-5-methylisoxazole-3-carboxamide] registered an IC50 of 1 to 10 µM.

For the compound `CC[C@@H]1C[C@H](NC(=O)CNC(=O)c2cnoc2C)C[C@@H]1c1nnc2cnc3[nH]ccc3n12` [compound 38, N-(2-((1S,3R,4S)-3-ethyl-4-(6H-pyrrolo[2,3-e][1,2,4]triazolo[4,3-a]pyrazin-1-yl)cyclopentylamino)-2-oxoethyl)-5-methylisoxazole-4-carboxamide], the IC50 was in the range of 1 to 10 µM.

For `CC[C@@H]1C[C@H](NC(=O)c2cc3ccc(C)cc3o2)C[C@@H]1c1nnc2cnc3[nH]ccc3n12` [compound 33, N-((1S,3R,4S)-3-ethyl-4-(6H-pyrrolo[2,3-e][1,2,4]triazolo[4,3-a]pyrazin-1-yl)cyclopentyl)-6-methylbenzofuran-2-carboxamide], the half-maximal inhibitory concentration (IC50) lay within 1 to 10 µM.

`CC[C@@H]1C[C@H](NC(=O)C2(C#N)CC2)C[C@@H]1c1nnc2cnc3[nH]ccc3n12` [compound 54, 1-cyano-N-((1S,3R,4S)-3-ethyl-4-(6H-pyrrolo[2,3-e][1,2,4]triazolo[4,3-a]pyrazin-1-yl)cyclopentyl)cyclopropanecarboxamide] registered an IC50 of 1 to 10 µM.

In turn, `CC[C@@H]1C[C@H](NC(=O)c2ncoc2C2CC2)C[C@@H]1c1nnc2cnc3[nH]ccc3n12` [compound 47, 5-cyclopropyl-N-((1S,3R,4S)-3-ethyl-4-(6H-pyrrolo[2,3-e][1,2,4]triazolo[4,3-a]pyrazin-1-yl)cyclopentyl)oxazole-4-carboxamide] yielded an IC50 above 10 µM.

Turning to `CC[C@@H]1C[C@H](NC(=O)c2ncoc2C)C[C@@H]1c1nnc2cnc3[nH]ccc3n12` [compound 42, N-((1S,3R,4S)-3-ethyl-4-(6H-pyrrolo[2,3-e][1,2,4]triazolo[4,3-a]pyrazin-1-yl)cyclopentyl)-5-methyloxazole-4-carboxamide], the IC50 fell in the range of 1 to 10 µM.

In the case of `CC[C@@H]1C[C@H](NC(=O)CCC2NC(=O)NC2=O)C[C@@H]1c1nnc2cnc3[nH]ccc3n12` (stereo partly drawn) [compound 28, 3-(2,5-dioxoimidazolidin-4-yl)-N-((1S,3R,4S)-3-ethyl-4-(6H-pyrrolo[2,3-e][1,2,4]triazolo[4,3-a]pyrazin-1-yl)cyclopentyl)propanamide], the IC50 lay in the range of 1 to 10 µM.
